Test results taken from the METLIN SMRT retention time set (Domingo-Almenara et al. 2019).

Assay: gradient 5% acetonitrile 3 min, to 50% in 2 min, to 85% in 15 min, held 3 min, 100 µL/min
Conditions: column: Zorbax Extend-C18 2.1 x 50 mm; eluents: water / acetonitrile, 0.1% formic acid
Method in brief: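 Retention times come from adduct peaks that were picked computationally and then checked by hand. The standards, pure and pooled in mixtures of ~100 molecules, were run on a Zorbax Extend-C18 column (2.1 × 50 mm, 1.8 μm) at 100 μL/min with water and acetonitrile, each with 0.1% formic acid. Detection was by quadrupole time-of-flight mass spectrometry in positive and negative ionization mode, with a dead volume of 40 μL and a dwell volume of 900 μL.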

Structure (SMILES) | RP-LC retention time
COc1ccc(Nc2nccc(NCCO)n2)cc1 | 610 s
CC1CCC(NC(=O)C2CCN(C(=O)c3ncn4c3COC(c3ccc(F)cc3)C4)CC2)CC1 (stereo not given) | 826 s
Cc1nc(-c2ccc(Cl)cc2)sc1CCNC(=O)c1ccco1 | 946 s
Cc1ccc(Nc2c(-c3nc(C)no3)cnc3nc(C)ccc23)cc1 | 750 s
Cc1ccn2cc(-c3ccc(NC(=O)Nc4ccc(Cl)cc4)cc3)nc2n1 | 711 s
Cc1nc(Cn2cccc2C(=O)Nc2cccc(Cl)c2)no1 | 911 s
CCn1ccnc1N1CCN(C(=O)COc2ccc(Cl)cc2Cl)CC1 | 593 s
O=C(CCC1CCN(S(=O)(=O)c2ccccc2)CC1)NCC1CCCCC1 | 971 s
COc1ccc(-c2noc(C3(NC(=O)c4ccco4)CCCCC3)n2)cc1 | 1000 s
CCC(C(=O)NCc1ccco1)n1c2ccccc2c2cnn(C)c(=O)c21 (stereo not given) | 777 s
CCn1cc(CC(=O)NCCC(C)C)c2cccnc21 | 706 s
O=C(O)C1CCN(c2nc3ccc(-c4cncnc4)nc3s2)CC1 | 674 s
CCOc1ccc(-c2noc(Cn3c(=O)n(Cc4ccccc4)c(=O)c4sccc43)n2)cc1OC | 1110 s
COC(=O)c1cnc(N2CCN(c3cccc(Cl)c3)CC2)c2ccccc12 | 1350 s
COCCNC(=O)c1cc2c(n(-c3ccc(F)cc3)c1=O)CCCC2=O | 701 s
O=C(c1cnn2cccnc12)N1CCCC1c1ccc(Cl)cc1 (stereo not given) | 766 s
CCCc1nc(-c2c(C)cc(C)nc2NC(=O)c2cc(C)cc(C)c2)no1 | 784 s
COc1cccc(OC)c1CN1C[C@@H](CO)[C@H](c2ccncc2)C1 | 500 s
CCn1cc(C)c(C(=O)O)c1CC(=O)NCc1ccc(C)cc1 | 772 s
O=C(Nc1nnc(Cc2cccs2)o1)c1ccc(S(=O)(=O)N2CCOCC2)cc1 | 691 s
Cc1noc([C@@H]2CC(F)(F)CN2C(=O)c2occc2C)n1 | 756 s
c1ccc2c(OCc3nc4ccccc4[nH]3)cccc2c1 | 626 s
CCC(C)NC(=O)C1CCN(S(C)(=O)=O)c2cc(Cl)ccc2O1 (stereo not given) | 862 s

Structure (SMILES) | RP-LC retention time
CCc1ccccc1N(C)C(=O)c1cc2c(=O)n(CC)c3ccccc3n2n1 | 1010 s
O=C(NCCc1csc(-c2cccs2)n1)C1CCN(C(=O)C2CCCCC2)CC1 | 817 s
CC1CCN(S(=O)(=O)c2ccc(-c3nnc(C(=O)NC4CCCCCC4)o3)cc2)CC1 | 1170 s
Cc1ccccc1NC(=O)Cn1cnc2c(c1=O)CCCC2 | 662 s
COC(=O)C1=CN(C2CC2)c2cc(N3CCN(c4ccc(C(C)=O)cc4)CC3)c(F)cc2S1(=O)=O | 906 s
COCC1CN(S(=O)(=O)c2cc(F)ccc2C)CC12CCNCC2 (stereo not given) | 641 s
CCCCn1cc(S(=O)(=O)Nc2ccc(C)cc2F)c2cccnc21 | 980 s
Cn1ccc2c(cc(C(=O)N3CCN(c4ccc(F)cc4)CC3)n2C)c1=O | 689 s
O=C(CSc1nc2ccccc2c(=O)n1Cc1cccs1)Nc1ncn[nH]1 | 670 s
Cc1nnc(-c2ccc3ccn(CC(=O)NCc4ccc(F)cc4)c3c2)o1 | 760 s
Cc1oc2cc3oc(=O)c(CC(=O)N4CCC(C(N)=O)CC4)c(C)c3cc2c1C | 697 s
Cc1c(C(=O)NCC2CC2)cnn1-c1cc(-c2nc(C(C)C)no2)ccn1 | 1020 s
CCc1nc(OCC(=O)Nc2ccc(Cl)c(C(F)(F)F)c2)c2ccccc2n1 | 997 s
Cn1nc(-c2nc(-c3ccccc3)no2)c2c1CCN(C(=O)Nc1cccc(Cl)c1)C2 | 1050 s
O=C(Cn1cnc2onc(-c3ccc(F)cc3)c2c1=O)N1CCCc2ccccc21 | 1040 s
CC(=O)Nc1ccc(CC(=O)NC(C)C(=O)N2CCCc3ccccc32)cc1 (stereo not given) | 685 s
COc1cccc(NS(=O)(=O)c2cn(C(C)C)c3ncccc23)c1 | 846 s
CN1CCC(N(C)C(=O)CN2C(=O)C(Oc3ccc(F)cc3)C23CCCCC3)CC1 (stereo not given) | 680 s
O=C(c1ccoc1)N1CCCn2nc(-c3ccc(Cl)cc3)cc2C1 | 802 s
COc1cc(S(N)(=O)=O)c(OC)cc1N | 616 s
Cc1cc(C)n(Cc2nc(-c3ccc(NC(=O)c4ccco4)cc3)oc2C)n1 | 818 s
COc1cccc(OCC(O)CN2CCN(c3ccc(Cl)cc3)CC2)c1 (stereo not given) | 724 s
